From patent publication US20090048258A1, “Amide Compound” (priority 2005, published 2009)

target: T1, Human DGAT1 (Homo sapiens, UniProt O75907); experiment: DGAT inhibitory activity: [14C]-triglyceride synthesis by DGAT1 high expression Sf9 microsome; format: biochemical; details: Table 1, 25 μM dioleoylglycerol, 25 μM [14C]-Oleoyl-CoA, 32° C., 15 min, read-out: DGAT inhibitory activity (according to IC50)
T1 construct: my translation of the primer: M-G-DYKDDDD-GDRGSSRRR) (N); made in house; host or cells: Sf9 insect cells (recombinant baculovirus BAC-DGAT1, pFASTBAC1); microsome fraction
T1 sequence (O75907 1-488): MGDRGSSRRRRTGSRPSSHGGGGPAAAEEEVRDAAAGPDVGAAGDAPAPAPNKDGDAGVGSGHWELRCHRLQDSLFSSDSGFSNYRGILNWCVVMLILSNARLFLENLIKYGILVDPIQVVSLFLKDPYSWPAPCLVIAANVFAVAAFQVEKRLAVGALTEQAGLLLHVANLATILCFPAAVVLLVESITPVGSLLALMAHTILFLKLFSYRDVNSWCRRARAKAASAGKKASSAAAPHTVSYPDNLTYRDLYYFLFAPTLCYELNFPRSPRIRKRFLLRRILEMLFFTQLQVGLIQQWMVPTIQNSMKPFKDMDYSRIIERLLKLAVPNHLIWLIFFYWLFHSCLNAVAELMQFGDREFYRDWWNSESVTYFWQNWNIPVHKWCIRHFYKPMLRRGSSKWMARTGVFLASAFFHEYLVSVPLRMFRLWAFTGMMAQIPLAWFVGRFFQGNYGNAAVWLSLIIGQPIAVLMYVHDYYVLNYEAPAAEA
Protocol: The primer base sequence is shown below.
The PCR reaction was conducted using a KOD-plus kit (TOYOBO). The obtained PCR product was electrophoresed on agarose gel (1%), the DNA fragment amplified by PCR was recovered from the gel, and then digested with restriction enzymes EcoRI and SpeI. […] Furthermore, using BAC-TO-BAC Baculovirus Expression System (Invitrogen), recombinant baculovirus BAC-DGAT1 was prepared.
SF9 cells were sown at 1×10^6 cells/ml on Sf-900II SEM medium (1 L, Invitrogen) containing 10% fetal calf serum (Trace), 50 mg/L gentamicin (Invitrogen) and 0.1% Pluronic F-68 (Invitrogen), and shaking culture was performed using a 2 L volume Erlenmeyer at 27° C., 100 rpm. After culturing for 24 hr, recombinant baculovirus BAC-DGAT1 (6.7 mL) was added, and the mixture was further cultured for 3 days. The culture medium was centrifuged at 2,000 rpm for 5 min to give virus-infected cells. The infected cells were washed with a phosphate buffered saline (Invitrogen), centrifuged under the same conditions, and the cells were preserved at −80° C. The cryopreserved cells were thawed in ice, suspended in buffer A (50 mM Tris buffer (30 mL, pH 7.4) containing 20% glycerol, 0.15 M NaCl) supplemented with Complete Protease Inhibitor (Boehringer), and ruptured 3 times with a Polytron homogenizer (Kinematica) at 20,000 rpm for 30 sec. The Sf9 microsome fractions were obtained by a conventional method and cryopreserved at −80° C. as a DGAT1 high expression Sf9 microsome.
As a DGAT1 reaction buffer, a solution having a composition of 100 mM Tris-HCl (pH 7.5), 250 mM sucrose, 150 mM MgCl2, 0.01% bovine serum albumin (BSA) was used. […] A mixture of 300 μL of chloroform:methanol (=1:2) was added to the reaction mixture to quench the reaction. The reaction mixture was sufficiently mixed and saline (200 μL) was added to partition the mixture between a chloroform layer (lower layer) and an aqueous layer (upper layer). The chloroform layer (50 μL) was spotted on a thin layer chromatography silica gel plate (TLC plate, Merck) and developed with a solvent (n-hexane:diethyl ether:ethyl acetate:acetic acid=74:15:15:1). The developed TLC plate was dried, contacted with a BAS imaging plate (manufactured by FUJIFILM) and measured with BAS2500 (manufactured by FUJIFILM) 16 hr later to numerically show the amount of [^14C]-triglyceride (TG amount) produced during the reaction. The inhibitory rate was calculated by the following formula:
Inhibitory rate (%)=(1−(TG amount in the case with addition of test compound−blank TG amount)/(control TG amount−blank TG amount))×100
The count of the triglyceride produced in the solution reacted without addition of the test compound was used as a “control TG amount”, and the count of the triglyceride produced in the solution reacted without addition of the test compound and DGAT1 high expression Sf9 microsome was used as a “blank TG amount”.

| Compound | IC50 |
| --- | --- |
| O=C(CCC(=O)c1ccc2c(c1)CCCC2)Nc1nc(-c2ccccc2)c(Cc2ccccc2)s1 [Example 7, N-(5-benzyl-4-phenyl-1,3-thiazol-2-yl)-4-oxo-4-(5,6,7,8-tetrahydronaphthalen-2-yl)butanamide] | ≤ 10 nM |
| CCCc1cc(C(=O)CCC(=O)Nc2nc(-c3ccccc3)c(Cc3ccccc3)s2)ccc1OCC [Example 24, N-(5-benzyl-4-phenyl-1,3-thiazol-2-yl)-4-(4-ethoxy-3-propylphenyl)-4-oxobutanamide] | 10 to 50 nM |
| CCOc1ccc(C(=O)C(C)CC(=O)Nc2nc(-c3ccccc3)c(Cc3ccccc3)s2)cc1OCC (centres unmarked) [Example 57, N-(5-benzyl-4-phenyl-1,3-thiazol-2-yl)-4-(3,4-diethoxyphenyl)-3-methyl-4-oxobutanamide] | ≤ 10 nM |
| CCOc1ccc(C(=O)CCC(=O)Nc2cc(-c3ccc(OCOC)cc3)c3ccccc3n2)cc1OCC [Example 15, 4-(3,4-diethoxyphenyl)-N-{4-[4-(methoxymethoxy)phenyl]quinolin-2-yl}-4-oxobutanamide] | 50 to 500 nM |
| CCOc1ccc(C(=O)CCC(=O)Nc2cn(Cc3ccccc3)nc2-c2ccccc2)cc1OCC [Example 20, N-(1-benzyl-3-phenyl-1H-pyrazol-4-yl)-4-(3,4-diethoxyphenyl)-4-oxobutanamide] | 50 to 500 nM |
| CCc1cc(C(=O)CCC(=O)Nc2cc(-c3ccccc3)c(Cc3ccccc3)s2)ccc1OC [Example 55, N-(5-benzyl-4-phenyl-2-thienyl)-4-(3-ethyl-4-methoxyphenyl)-4-oxobutanamide] | 50 to 500 nM |
| CCOc1ccc(C(=O)CCC(=O)Nc2ccn(Cc3ccccc3)c2-c2ccccc2)cc1OCC [Example 19, N-(1-benzyl-2-phenyl-1H-pyrrol-3-yl)-4-(3,4-diethoxyphenyl)-4-oxobutanamide] | 10 to 50 nM |

same assay, conditions: Table 2, 25 μM dioleoylglycerol, 25 μM [14C]-Oleoyl-CoA, 32° C., 15 min, read-out: DGAT inhibitory activity (according to IC50)

| Compound | IC50 |
| --- | --- |
| N#Cc1ccccc1-c1cc(NC(=O)CCC(=O)c2ccc3c(c2)CCO3)nc(-c2ccccc2)c1 [Example 176, N-[4-(2-cyanophenyl)-6-phenylpyridin-2-yl]-4-(2,3-dihydro-1-benzofuran-5-yl)-4-oxobutanamide] | ≤ 10 nM |
| O=C(CCC(=O)c1ccc2c(c1)CCO2)Nc1cc(-c2ccc(N3CCOCC3)cc2)cc(-c2ccccc2)n1 [Example 160, 4-(2,3-dihydro-1-benzofuran-5-yl)-N-[4-(4-(morpholin-4-yl)phenyl)-6-phenylpyridin-2-yl]-4-oxobutanamide] | 500 to 10000 nM |
| CCOc1ccc(C(=O)CCC(=O)Nc2cc(-c3cccn3C(=O)OC(C)(C)C)cc(-c3ccccc3)n2)cc1OCC [Example 118, tert-butyl 2-(2-{[4-(3,4-diethoxyphenyl)-4-oxobutanoyl]amino}-6-phenylpyridin-4-yl)-1H-pyrrole-1-carboxylate] | 500 to 10000 nM |
| O=C(CCC(=O)c1ccc2c(c1)CCO2)Nc1cc(-c2ccccc2)cc(-c2ccccc2)n1 [Example 104, 4-(2,3-dihydro-1-benzofuran-5-yl)-N-(4,6-diphenylpyridin-2-yl)-4-oxobutanamide] | 50 to 500 nM |
| CCOc1ccc(C(=O)CCC(=O)Nc2cc(-c3ccc(O)cc3)cc(-c3ccccc3)n2)cc1OCC [Example 123, 4-(3,4-diethoxyphenyl)-N-[4-(4-hydroxyphenyl)-6-phenylpyridin-2-yl]-4-oxobutanamide] | ≤ 10 nM |
| CCOc1ccc(C(=O)CCC(=O)Nc2cc(-c3ccc(C)cc3)c3cc(Br)ccc3n2)cc1OCC [Example 76, N-[6-bromo-4-(4-methylphenyl)quinolin-2-yl]-4-(3,4-diethoxyphenyl)-4-oxobutanamide] | 10 to 50 nM |
| CCCc1cc(C(=O)CCC(=O)Nc2cc(-c3ccccc3)c(Cc3ccccc3)s2)ccc1OCC [Example 97, N-(5-benzyl-4-phenyl-2-thienyl)-4-(4-ethoxy-3-propylphenyl)-4-oxobutanamide] | 50 to 500 nM |
| O=C(O)CCc1ccc(-c2cc(NC(=O)CCC(=O)c3ccc4c(c3)CCO4)nc(-c3ccccc3)c2)cc1 [Example 157, 3-[4-(2-{[4-(2,3-dihydro-1-benzofuran-5-yl)-4-oxobutanoyl]amino}-6-phenylpyridin-4-yl)phenyl]propanoic acid] | 500 to 10000 nM |
| O=C(CCC(=O)c1ccc2c(c1)CCO2)Nc1cc(-c2cccc(OC(F)(F)F)c2)cc(-c2ccccc2)n1 [Example 175, 4-(2,3-dihydro-1-benzofuran-5-yl)-4-oxo-N-{6-phenyl-4-[3-(trifluoromethoxy)phenyl]pyridin-2-yl}butanamide] | 50 to 500 nM |
| COc1cc(-c2cc(NC(=O)CCC(=O)c3ccc4c(c3)CCO4)nc(-c3ccccc3)c2)ccc1O [Example 181, 4-(2,3-dihydro-1-benzofuran-5-yl)-N-[4-(4-hydroxy-3-methoxyphenyl)-6-phenylpyridin-2-yl]-4-oxobutanamide] | 10 to 50 nM |
| CCOc1ccc(C(=O)CCC(=O)Nc2cc(-c3ccccc3)c3ccc(/C=C/C#N)cc3n2)cc1OCC [Example 86, N-{7-[(E)-2-cyanovinyl]-4-phenylquinolin-2-yl}-4-(3,4-diethoxyphenyl)-4-oxobutanamide] | 10 to 50 nM |
| O=C(CCC(=O)c1ccc2c(c1)CCCC2)Nc1cc(-c2ccccc2)c(Cc2ccccc2)s1 [Example 99, N-(5-benzyl-4-phenyl-2-thienyl)-4-oxo-4-(5,6,7,8-tetrahydronaphthalen-2-yl)butanamide] | 50 to 500 nM |
| CCOc1ccc(C(=O)CCC(=O)Nc2sc(-c3ccccc3)nc2-c2ccccc2)cc1 [Example 66, 4-(4-ethoxyphenyl)-N-(2,4-diphenyl-1,3-thiazol-5-yl)-4-oxobutanamide] | 500 to 10000 nM |
| O=C(CCC(=O)c1ccc2c(c1)CCO2)Nc1cc(-c2ccc(CN3CCOCC3)cc2)cc(-c2ccccc2)n1 [Example 161, 4-(2,3-dihydro-1-benzofuran-5-yl)-N-{4-[4-(morpholin-4-ylmethyl)phenyl]-6-phenylpyridin-2-yl}-4-oxobutanamide] | 500 to 10000 nM |
| O=C(CCC(=O)c1ccc2c(c1)CCO2)Nc1cc(-c2ccc(CO)cc2)cc(-c2ccccc2)n1 [Example 156, 4-(2,3-dihydro-1-benzofuran-5-yl)-N-{4-[4-(hydroxymethyl)phenyl]-6-phenylpyridin-2-yl}-4-oxobutanamide] | 50 to 500 nM |
| O=C(CCC(=O)c1ccc2c(c1)CCO2)Nc1cc(-c2ccccc2O)cc(-c2ccccc2)n1 [Example 177, 4-(2,3-dihydro-1-benzofuran-5-yl)-N-[4-(2-hydroxyphenyl)-6-phenylpyridin-2-yl]-4-oxobutanamide] | 10 to 50 nM |
| Cc1ccc(C(=O)CCC(=O)Nc2cc(-c3ccccc3)cc(-c3ccccc3)n2)cc1C [Example 111, 4-(3,4-dimethylphenyl)-N-(4,6-diphenylpyridin-2-yl)-4-oxobutanamide] | 500 to 10000 nM |
| COC(=O)CCc1ccc(-c2cc(NC(=O)CCC(=O)c3ccc4c(c3)CCO4)nc(-c3ccccc3)c2)cc1 [Example 158, methyl 3-[4-(2-{[4-(2,3-dihydro-1-benzofuran-5-yl)-4-oxobutanoyl]amino}-6-phenylpyridin-4-yl)phenyl]propanoate] | 50 to 500 nM |
| O=C(CCC(=O)c1ccc2c(c1)CCO2)Nc1cc(-c2cccc(CCCO)c2)cc(-c2ccccc2)n1 [Example 168, 4-(2,3-dihydro-1-benzofuran-5-yl)-N-{4-[3-(3-hydroxypropyl)phenyl]-6-phenylpyridin-2-yl}-4-oxobutanamide] | 50 to 500 nM |
